The test system of test [1] is liver cancer cells Huh7. In words: Inhibition of fluorescently labeled DNA uptake by liver cancer cells. The test is classed as cell-based. The following applies: then labeled DNA for 8 hours. On the procedure:
1.8 KB of AFP (alpha feto protein) DNA is obtained through PCR (polymerase chain reaction), extracted with phenol-chloroform and adjusted to a concentration of 1 μg/mL. 5 μg of DNA is taken, and Rhodamine (fluorescent marker) is added. The mixture is allowed to stand at 37° C. for 1 hour, and purified in a G-50 Sephadex (purification column).
1640 medium is taken, and FBS (fetal bovine serum) is added, wherein the mass of FBS (fetal bovine serum) is 10% of that of 1640 medium. Put the mixture aside.
Eight groups of liver cancer cells Huh7 are inoculated into a 1640 medium respectively containing 10% FBS (fetal bovine serum) and cultured at 37° C. for 12 hours in an incubator containing 5% CO2.
Cells obtained through culture are rinsed 3 times with PBS and fixed with 4% formalin. The cells fixed as described above are photographed with a fluorescence microscope. […] The concentration of T3 is: 0 ng/mL, 1 ng/mL, 50 ng/mL and 100 ng/mL respectively.

For test [2], the system named is liver cancer cells Huh7. In words: Inhibition of liver cancer cell proliferation (CellTiter 96 AQueous One Solution). The settings on record: 72 hours, 490 nm absorbance. The test is classed as cell-based. The procedure:
(§1) Liver cells LO2 and liver cancer cells Huh7 are inoculated into a 1640 medium containing 10% FBS (fetal bovine serum) respectively, and cultured at 37° C. for 12 hours in an incubator containing 5% CO2. […] The CellTiter 96® AQueous One Solution kit is used to determine the cells. 20 μL of analytical reagents are added and readings are taken at 490 nm absorbance.

In the next test the test system is liver cells LO2. In words: Proliferation of liver cells (CellTiter 96 AQueous One Solution). The format is cell-based. The following applies: 72 hours, 490 nm absorbance. The procedure: as §1
The test system of test [3] is H22 mouse liver cancer cells. Description: Inhibition of the growth of mouse liver cancer tumors. The test is classed as in vivo, Kunming mice. The following applies: for Inhibition rate (ninth day): vs normal saline group, hydrochloride; for tumor volume, Ninth day / tumor volume, Sixth day / tumor volume, Third day: H22 tumors in Kunming mice. The procedure:
Preparation of tumor cell suspension: H22 mouse liver cancer cells are inoculated into a 1640 medium containing 10% FBS (fetal bovine serum), and cultured at 37° C. for 12 h in an incubator containing 5% CO2. When the cells grow to the logarithmic phase, the above medium is prepared into a cell suspension, and the concentration of H22 mouse liver cancer cells is controlled to 1×10^6 cells/mL to obtain the tumor cell suspension for later use.
Building of animal tumor model: 30 SPF grade Kunming mice, male and (20±2) g, are taken. […] The right armpit skin of mice in each group is disinfected with alcohol, and 0.2 mL of the above tumor cell suspension is drawn with a 1 mL syringe, and inoculated into the disinfected part of the mice by slow hypodermic injection. All mice are given sufficient water and feed, the litter is kept dry and the tumor growth of the mice is observed. Generally, 7 days after modeling, obvious tumor nodules can be felt under the armpits of the mice, which means that the modeling was successful.

For test [4], the system named is LLC lung cancer cell strains. In words: Inhibition of the growth of mouse lung cancer tumors. The format is in vivo, CK57BL mice. The following applies: for Inhibition rate on the seventh day: 480 mg/kg intraperitoneally once a day for 7 days, vs normal saline group, hydrochloride. The procedure: Preparation of tumor cell suspension: LLC lung cancer cell strains are inoculated into a DMEM medium containing 10% FBS (fetal bovine serum), and cultured at 37° C. for 12 h in an incubator containing 5% CO2. When the cells grow to the logarithmic phase, the above medium is prepared into a cell suspension, and the concentration is 1×10^6 cells/mL to obtain the lung cancer cell suspension for later use.
Building of animal tumor model: 20 SPF grade CK57BL mice, male and (20±2) g, are taken. The above mice are kept in a laboratory without particular pathogens. The right armpit skin of the mice is disinfected with alcohol, and 0.2 mL of the above tumor cell suspension is drawn with a 1 mL syringe, and inoculated into the disinfected part of the mice by slow hypodermic injection. All mice are given sufficient water and feed, the litter is kept dry and the tumor growth of the mice is observed. Generally, about 10 days after modeling, obvious tumor nodules can be felt under the armpits of the mice, which means that the modeling was successful.

[5] abbreviates: high-dose, 480 mg/kg intraperitoneally twice a day.
Setting [6] is: low-dose, 240 mg/kg intraperitoneally twice a day.
The mark [7] stands for this setting: 480 mg/kg intraperitoneally once a day, LLC tumors in CK57BL mice.

Consider `N[C@@H](Cc1cc(I)c(Oc2ccc(O)c(I)c2)c(I)c1)C(=O)O` [triiodothyronine], for which the “uptake of fluorescently labeled DNA by liver cancer cells” value in the test on liver cancer cells Huh7 [1] (control groups with 0, 1, 50, 100 ng/mL T3 for 24 hours) is listed as “do not affect the uptake”.
For the compound guanidine hydrochloride, in the test with liver cancer cells Huh7 [1] (0, 1, 25, 50 mmol/L guanidine hydrochloride for 24 hours, fluorescence microscope), the “uptake of fluorescently labeled DNA by liver cancer cells” value was “significantly inhibit the uptake of DNA”. Further, the “growth of cancer cells Huh7” value in the test with liver cancer cells Huh7 [2] (6 mmol/L) is “begins to significantly inhibit”; in the test on liver cancer cells Huh7 [2] (20 mmol/L), “significantly inhibited”. Moreover, the “growth of liver cells LO2” value was “does not affect the growth” in the test on liver cells LO2 (6 mmol/L) and “significantly inhibited” in the test on liver cells LO2 (20 mmol/L). The “Inhibition rate (ninth day)” value in test [3] (high-dose, 480 mg/kg intraperitoneally twice a day for 9 days, 480 mg/kg) turned out to be 42%; in test [3] (low-dose, 240 mg/kg intraperitoneally twice a day for 9 days, 240 mg/kg), 24%. Further, the “tumor volume, Ninth day” value amounted to 2.37 cm^3 in test [3] (setting [5]) and 3.11 cm^3 in test [3] (setting [6]). For the same compound, the figures for the “tumor volume, Sixth day” value in test [3] (setting [5]) and in test [3] (setting [6]) were 1.47 cm^3 and 2.16 cm^3, respectively. The “tumor volume, Third day” value in test [3] (setting [5]) is 0.54 cm^3; in test [3] (setting [6]), 0.55 cm^3; in test [4] (setting [7]), 0.92 cm^3. For the same compound, the “Inhibition rate on the seventh day” value in test [4] and in test [4] (listed as Guanidine hydrochloride) was 56.8% throughout. The “tumor volume, First day” value in test [4] (setting [7]) is 0.43 cm^3. Further, the “tumor volume, Seventh day” value in test [4] (setting [7]) was 1.8 cm^3.
